According to PubChem BioAssay AID328 (DTP/NCI, 2004):
Values joined by “and” are separate entries in the source; they are usually repeats but may differ in a detail not shown here. Equal values may be shown once. Toxic doses and inconclusive results are not listed.

Experiments:
[1] = test system: BDF1 mice, P388 leukemia ip, median survival T/C; assay: NCI In Vivo Anticancer Drug Screen. Data for tumor model P388 Leukemia (intraperitoneal) in B6D2F1 (BDF1) mice; conditions: endpoint: median survival time, higher = longer survival
Summary of the method: (§1)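 Survival ratio, drug arm over vehicle arm, in mice with a transplanted tumour.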

[2] = test system: BDF1 mice, P388 leukemia ip; assay: as above; conditions: endpoint: mean survival time, higher = longer survival
Summary of the method: as §1

[3] = dose: 100.0 mg/kg/injection, schedule: Q04DX003 (ip), vehicle: saline
[4] = dose: 200.0 mg/kg/injection, schedule: Q04DX003 (ip), vehicle: saline
[5] = dose: 400.0 mg/kg/injection, schedule: Q04DX003 (ip), vehicle: saline

SMILES: CCC1(O)CC(OC2CC(N(C)C)C(OC3CC4OC5CC(=O)C(C)OC5OC4C(C)O3)C(C)O2)c2c(cc3c(c2O)C(=O)c2c(O)ccc(O)c2C3=O)C1C(=O)OC (centres undefined)
- T/C ([1]; dose: 0.75 mg/kg/injection, schedule: Q01DX001 (ip), vehicle: saline): 104 % of control
- T/C ([1]; dose: 0.86 mg/kg/injection, schedule: Q04DX003 (ip), vehicle: water): 121 % of control
- T/C ([1]; dose: 1.25 mg/kg/injection, schedule: Q01DX001 (ip), vehicle: saline): 114 % of control
- T/C ([1]; dose: 1.3 mg/kg/injection, schedule: Q04DX003 (ip), vehicle: water): 157 % of control
- T/C ([1]; dose: 1.5 mg/kg/injection, schedule: Q01DX001 (ip), vehicle: saline): 109 % of control
- T/C ([1]; dose: 1.73 mg/kg/injection, schedule: Q04DX003 (ip), vehicle: water): 155 % of control
- T/C ([1]; dose: 2.16 mg/kg/injection, schedule: Q04DX003 (ip), vehicle: water): 191 % of control
- T/C ([1]; dose: 2.4 mg/kg/injection, schedule: Q04DX003 (ip), vehicle: water): 165 % of control
- T/C ([1]; dose: 5.0 mg/kg/injection, schedule: Q01DX001 (ip), vehicle: saline): 166 % of control
- T/C ([1]; dose: 10.0 mg/kg/injection, schedule: Q01DX001 (ip), vehicle: saline): 195 % of control
- T/C ([2]; dose: 0.09 mg/kg/injection, schedule: Q01DX010 (ip), vehicle: saline): 111 % of control
- T/C ([2]; dose: 0.38 mg/kg/injection, schedule: Q01DX010 (ip), vehicle: saline): 95 % of control
- T/C ([2]; dose: 1.5 mg/kg/injection, schedule: Q01DX010 (ip), vehicle: saline): 87 % of control

SMILES: CC1=C(C)C(=O)O[C@@H]([C@](C)(O)[C@]2(O)CC[C@@]3(O)[C@@H]4C[C@H]5O[C@]56CC=CC(=O)[C@]6(C)[C@H]4CC[C@]23C)C1
- T/C ([2]; dose: 50.0 mg/kg/injection, schedule: Q02DX003 (ip), vehicle: saline): 114 % of control
- T/C ([2]; dose: 100.0 mg/kg/injection, schedule: Q02DX003 (ip), vehicle: saline): 117 % of control

SMILES: CCN(CC)CCCC(C)NC(=O)c1cccc2c(N)cccc12 (centres undefined)
- T/C ([1]; dose: 25.0 mg/kg/injection, schedule: Q04DX003 (ip), vehicle: water): 91 % of control
- T/C ([1]; dose: 50.0 mg/kg/injection, schedule: Q04DX003 (ip), vehicle: water): 106 % of control
- T/C ([1]; dose: 100.0 mg/kg/injection, schedule: Q04DX003 (ip), vehicle: water): 97 % of control
- T/C ([1]; dose: 200.0 mg/kg/injection, schedule: Q04DX003 (ip), vehicle: water): 100 % of control
- T/C ([1]; dose: 400.0 mg/kg/injection, schedule: Q04DX003 (ip), vehicle: water): 104 % of control
- T/C ([2]; dose: 25.0 mg/kg/injection, schedule: Q01DX009 (ip), vehicle: water): 98 % of control
- T/C ([2]; dose: 50.0 mg/kg/injection, schedule: Q01DX009 (ip), vehicle: water): 106 % of control
- T/C ([2]; dose: 100.0 mg/kg/injection, schedule: Q01DX009 (ip), vehicle: water): 93 % of control
- T/C ([2]; dose: 200.0 mg/kg/injection, schedule: Q01DX009 (ip), vehicle: water): 91 % of control
- T/C ([2]; dose: 400.0 mg/kg/injection, schedule: Q01DX009 (ip), vehicle: water): 110 % of control

SMILES: CCOc1ccc2nnnn2n1
- T/C ([1]; dose: 62.5 mg/kg/injection, schedule: Q01DX009 (ip), vehicle: saline): 100 % of control
- T/C ([1]; dose: 250.0 mg/kg/injection, schedule: Q01DX009 (ip), vehicle: saline): 97 % of control

SMILES: CN/N=C/c1c2c(O)c3c(O)c(C)c4c(c3c1O)C(=O)C(C)(O/C=C/C(OC)C(C)C(OC(C)=O)C(C)C(O)C(C)C(O)C(C)/C=C/C=C(/C)C(=O)N2)O4 (centres undefined)
- T/C ([1]; dose: 50.0 mg/kg/injection, schedule: Q01DX009 (ip), vehicle: saline with Tween-80): 90 % of control
- T/C ([1]; dose: 100.0 mg/kg/injection, schedule: Q01DX009 (ip), vehicle: saline with Tween-80): 116 % of control
- T/C ([1]; dose: 200.0 mg/kg/injection, schedule: Q01DX009 (ip), vehicle: saline with Tween-80): 117 % of control

SMILES: O=S(=O)(O)CCC(CO)(CO)CO
- T/C [1, 3]: 100 % of control
- T/C [1, 4]: 95 % of control
- T/C [1, 5]: 95 % of control

SMILES: CC(=O)Nc1ccc(C(=O)O)c([N+](=O)[O-])c1
- T/C ([1]; dose: 25.0 mg/kg/injection, schedule: Q01DX009 (ip), vehicle: saline): 86 % of control
- T/C ([1]; dose: 50.0 mg/kg/injection, schedule: Q01DX009 (ip), vehicle: saline): 92 % of control and 106 % of control
- T/C ([1]; dose: 100.0 mg/kg/injection, schedule: Q01DX009 (ip), vehicle: saline): 91 % of control and 100 % of control
- T/C [1, 3]: 98 % of control
- T/C ([1]; dose: 200.0 mg/kg/injection, schedule: Q01DX009 (ip), vehicle: saline): 106 % of control
- T/C [1, 4]: 108 % of control
- T/C ([1]; dose: 400.0 mg/kg/injection, schedule: Q01DX009 (ip), vehicle: saline): 101 % of control
- T/C [1, 5]: 96 % of control

SMILES: NNC(=O)c1cnccn1
- T/C ([1]; dose: 40.0 mg/kg/injection, schedule: Q01DX010 (ip), vehicle: water): 100 % of control
- T/C ([1]; dose: 60.0 mg/kg/injection, schedule: Q01DX010 (ip), vehicle: water): 100 % of control
- T/C ([1]; dose: 80.0 mg/kg/injection, schedule: Q01DX010 (ip), vehicle: water): 100 % of control and 109 % of control
